According to PMC9551036, “A selective and orally bioavailable VHL-recruiting PROTAC achieves SMARCA2 degradation in vivo” (Nature Communications, 2022):
Where “and” joins values, the source holds several entries; their conditions need not be identical. Identical values can stand only once. Entries after “also recorded” stand apart in the source; their conditions may differ. Like-named read-outs stand apart in the source and are kept apart here.

Assays:
SMARCA2 = SMARCA2 (Homo sapiens, UniProt P51531); test: SMARCA2 IHC in NCI-H1568 xenograft tumours; format: in vivo, mouse; design: from tissue; host or cells: subcutaneous NCI-H1568 or A549 xenograft tumours in BomTac:NMRI-Foxn1nu mice; settings: NCI-H1568 xenograft; for SMARCA2 (OD, normalised) / SMARCA2 Nuclear OD: qd, end of study
Method: (§1) To establish subcutaneous tumours, mice were injected with 5 × 10^6 NCI-H1568 in PBS with 5% FCS or with 1 × 10^7 A549 cells in PBS with 5% FCS. Tumour diameters were measured with a caliper three times a week. The volume of each tumour (in mm^3) was calculated according to the formula [tumour volume = length × diameter^2 × π/6]. To monitor side effects of treatment, mice were inspected daily for abnormalities and body weight was determined daily after the start of treatment. Animals were sacrificed when the tumours reached a size of 1500 mm^3. Mice were randomised into treatment groups when the average tumour size reached ~210–220 mm^3. Group sizes were calculated individually for each tumour model based on tumour growth during model establishment experiments. A power analysis was performed using a sample size calculator (https://www.stat.ubc.ca/~rollin/stats/ssize/n2.html). For both models used in the study, 10 mice per group were used for each experiment. All administrations were dosed with 10 ml/kg (s.c. and oral). Control mice were dosed subcutaneously with 10% HP-β-CD in 50% Ringer solution and orally with 15% HP-β-CD, that means the control mouse treatment was corresponding to the solvent of the compounds. Compound 6 was dosed subcutaneously either in a d1-4 q3d, d6-8 q2d, d11-13 q2d treatment (Treatment 1) or a q3 or 4d treatment (Treatment 2).
Xenograft samples were fixed in 10% formaldehyde for 24 h and later moved to ethanol and embedded in paraffin. 2 µm-thick sections were cut using a microtome, then placed on glass slides ([…], silan printer slides PR-S:001), and subsequently dewaxed. SMARCA2 immunohistochemistry was carried out on the Leica BOND RX platform (Leica Biosystems) according to manufacturer’s instructions using a human-specific SMARCA2 antibody (Cell Signalling #11966 clone D9E8B RRID:AB_2797783 1:400) where the tissue underwent a heat-induced epitope retrieval for 20 min. After staining, the slides were cover-slipped with Shandon Consul-Mount glass covers, scanned using a slide scanner (3D HISTECH Ltd.). All slides were reviewed and evaluated for quality by a board-certified MD specialist in Anatomic Pathology (PC). Imaging analysis was performed using the digital pathology platform HALO (Indica Labs). A tissue-classifying algorithm was trained to selectively recognise viable tumour tissue against stroma, necrosis, and skin. The tissue classification output for each scan was reviewed and manually edited as necessary. A cell detection and scoring algorithm was trained to measure DAB optical density (OD) in the nuclei of tumour cells. A positivity threshold for DAB OD was determined by normalisation with respect to the DAB OD as calculated from bona fide negative tissue (e.g. murine stroma as background). The average, background-normalised DAB OD of tumour cell nuclei was used to quantitate SMARCA2 expression in each xenograft sample.

[1] = Body weight / tolerability in xenograft studies; format: in vivo, mouse; settings: NCI-H1568 xenograft efficacy study, body weight changes
Method: as §1

[2] = Pharmacokinetic analyses in mouse; format: in vivo; settings: for AUC(0-t): read-out: AUC0-24h; for Vd: read-out: Vss
Method: Compound concentrations in plasma aliquots were measured by quantitative HPLC-MS/MS using an internal standard. Calibration and quality control samples were prepared using blank plasma from untreated animals. Samples were precipitated with acetonitrile and injected into a HPLC system (Agilent 1200). Separation was performed by gradients of 5 mmol/L ammonium acetate pH 4.0 and acetonitrile with 0.1% formic acid on a 2.1 mm by 50 mm XBridge BEH C18 reversed-phase column with 2.5 µm particles (Waters). The HPLC was interfaced by ESI operated in positive ionisation mode to a triple quadrupole mass spectrometer (5000 or 6500+ Triple Quad System, SCIEX) operated in multiple reaction monitoring mode. Transitions were 532.4 to 432.8 m/z for BI01810284, 525.6 to 425.7 m/z for BI01802983 and 1021.6 to 624.2 m/z for BI01580883. Chromatograms were analyzed with Analyst (SCIEX) and pharmacokinetic parameters were calculated by non-compartmental analysis using BI-proprietary software.

[3] = 30 mg/kg po, individual tumours, 30 mg/kg
[4] = 100 mg/kg, PO, 48 h, individual tumours
[5] = 5 mg/kg i.v., individual animals
[6] = 30 mg/kg p.o., individual animals
[7] = NMRI, mouse, plasma, iv, 5 mg/kg, NMRI mice, i.v., 5 mg/kg, PK study
[8] = mouse, 5 mg/kg i.v., NCA, individual animals, 5 mg/kg
[9] = mouse, 30 mg/kg p.o., NCA, individual animals, 30 mg/kg

Sequence of SMARCA2 (P51531 whole entry): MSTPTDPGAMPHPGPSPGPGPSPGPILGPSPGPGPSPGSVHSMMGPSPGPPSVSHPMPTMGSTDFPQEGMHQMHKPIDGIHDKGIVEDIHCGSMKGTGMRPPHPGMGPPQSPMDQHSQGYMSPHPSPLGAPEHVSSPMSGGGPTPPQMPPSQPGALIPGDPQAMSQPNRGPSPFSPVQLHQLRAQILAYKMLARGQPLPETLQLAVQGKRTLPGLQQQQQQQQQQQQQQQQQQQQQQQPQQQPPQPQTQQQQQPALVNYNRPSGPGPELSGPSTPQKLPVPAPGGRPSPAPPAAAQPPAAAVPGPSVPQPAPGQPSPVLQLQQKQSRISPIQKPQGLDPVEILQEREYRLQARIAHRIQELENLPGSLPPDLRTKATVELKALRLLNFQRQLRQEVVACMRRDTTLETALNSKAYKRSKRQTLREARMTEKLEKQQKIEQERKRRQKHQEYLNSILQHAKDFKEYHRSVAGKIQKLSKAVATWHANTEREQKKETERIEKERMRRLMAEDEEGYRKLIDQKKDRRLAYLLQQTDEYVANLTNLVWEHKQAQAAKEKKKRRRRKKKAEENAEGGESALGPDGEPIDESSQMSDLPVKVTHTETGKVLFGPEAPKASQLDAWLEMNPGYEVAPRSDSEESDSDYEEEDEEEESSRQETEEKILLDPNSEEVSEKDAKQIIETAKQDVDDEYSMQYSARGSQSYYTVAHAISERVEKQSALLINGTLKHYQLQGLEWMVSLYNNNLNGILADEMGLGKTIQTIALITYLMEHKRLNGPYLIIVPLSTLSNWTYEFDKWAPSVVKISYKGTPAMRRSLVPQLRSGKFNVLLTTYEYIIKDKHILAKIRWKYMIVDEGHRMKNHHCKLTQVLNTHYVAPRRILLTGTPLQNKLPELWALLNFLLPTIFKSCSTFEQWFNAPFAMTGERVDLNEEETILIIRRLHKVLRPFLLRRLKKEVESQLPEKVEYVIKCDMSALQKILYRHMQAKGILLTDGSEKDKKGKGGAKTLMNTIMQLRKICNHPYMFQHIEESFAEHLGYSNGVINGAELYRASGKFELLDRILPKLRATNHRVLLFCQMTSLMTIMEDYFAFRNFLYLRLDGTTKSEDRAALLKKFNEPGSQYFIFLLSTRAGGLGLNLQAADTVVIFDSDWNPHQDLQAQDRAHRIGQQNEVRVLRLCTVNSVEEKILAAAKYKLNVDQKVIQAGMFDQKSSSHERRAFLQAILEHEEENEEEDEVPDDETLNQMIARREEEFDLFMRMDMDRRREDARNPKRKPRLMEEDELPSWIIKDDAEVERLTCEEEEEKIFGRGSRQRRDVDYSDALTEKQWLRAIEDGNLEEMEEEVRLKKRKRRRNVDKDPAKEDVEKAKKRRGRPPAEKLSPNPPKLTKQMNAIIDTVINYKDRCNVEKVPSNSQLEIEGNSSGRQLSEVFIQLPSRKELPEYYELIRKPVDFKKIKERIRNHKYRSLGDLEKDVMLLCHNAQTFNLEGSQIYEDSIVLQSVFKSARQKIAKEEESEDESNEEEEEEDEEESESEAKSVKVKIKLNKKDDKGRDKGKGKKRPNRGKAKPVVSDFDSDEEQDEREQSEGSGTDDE

## Cc1ncsc1-c1ccc([C@H](CCCCCN2CCC(c3ccc4c(c3)n(C3CCCC3)c3nc(=O)c5c(Br)cccc5n43)CC2)NC(=O)[C@@H]2C[C@@H](O)CN2C(=O)[C@@H](NC(=O)C2(F)CC2)C(C)(C)C)cc1 [compound 11]
SMARCA2
  SMARCA2 levels in tumours at the end of the efficacy study, IHC: undetectable by IHC in most treated tumour samples; also recorded: below the limit of detection
SMARCA2; [3]
  SMARCA2 (OD, normalised): 0.00000 and 0.00917
  SMARCA2 Nuclear OD: 0.03172 and 0.04361 and 0.06213 and 0.0483
SMARCA2; 100 mg/kg p.o., 48 h after treatment
  median decrease of SMARCA2 levels in viable tumour tissue compared to vehicle: 89%
SMARCA2; 100 mg/kg po, individual tumours
  SMARCA2 (OD, normalised): 0.00000
SMARCA2; 100 mg/kg po, individual tumours, 100 mg/kg
  SMARCA2 Nuclear OD: 0.03159 and 0.03653 and 0.04664 and 0.03486
SMARCA2; [4]
  Avg Stain 1 Nuclear OD (SMARCA2 IHC): 7.84E-02 and 7.05E-02 and 6.17E-02 and 6.89E-02
  Normalised SMARCA2 (OD): 0.04325 and 0.03531 and 0.02651 and 0.03377
[1]
  tolerability: well tolerated
[2]; [5]
  AUC: 40.7 µM·h and 36.8 µM·h
  AUCinf: 40.9 µM·h and 37 µM·h
[2]; 5 mg/kg i.v., time 0.25 h, individual animals
  Concentration: 8050 nM
[2]; 5 mg/kg i.v., time 1 h, individual animals
  Concentration: 5350 nM
[2]; 5 mg/kg i.v., time 6 h, individual animals
  Concentration: 807 nM
[2]; 5 mg/kg i.v., time 24 h, individual animals
  Concentration: 37.6 nM
[2]; 30 mg/kg p.o. vs 5 mg/kg i.v., individual animals
  F: 4.09% and 2.11% and 6.74%
[2]; [6]
  AUC: 8.84 µM·h and 4.54 µM·h and 14.6 µM·h
  AUCinf: 8.88 µM·h and 4.57 µM·h and 14.6 µM·h
[2]; NMRI, mouse, plasma, iv, 5 mg/kg, NMRI mice, PK study
  MRT: 2.9 h
[2]; [7]
  AUC(0-t): 36 µM·h
  Vd: 0.38 L/kg
[2]; NMRI, mouse, plasma, iv, 5 mg/kg, NMRI mice, i.v., 5 mg/kg, PK study, read-out: AUC0-inf
  AUC(0-inf): 36 µM·h
[2]; NMRI, mouse, plasma, iv, 5 mg/kg, NMRI mice, i.v., 5 mg/kg, PK study, read-out: Clearance
  clearance: 2.2 mL/min/kg
[2]; NMRI, mouse, plasma, po, 30 mg/kg, NMRI mice, PK study
  MRT: 5 h
[2]; NMRI, mouse, plasma, po, 30 mg/kg, NMRI mice, Xenograft study
  MRT: 5.6 h
[2]; NMRI, mouse, plasma, po, 30 mg/kg, NMRI mice, p.o., 30 mg/kg, PK study
  AUC(0-t): 9.3 µM·h
[2]; NMRI, mouse, plasma, po, 30 mg/kg, NMRI mice, p.o., 30 mg/kg, PK study, read-out: AUC0-inf
  AUC(0-inf): 9.4 µM·h
[2]; NMRI, mouse, plasma, po, 30 mg/kg, NMRI mice, p.o., 30 mg/kg, PK study, read-out: Bioavailability
  bioavailability: 4.3%
[2]; NMRI, mouse, plasma, po, 30 mg/kg, NMRI mice, p.o., 30 mg/kg, Xenograft study
  AUC(0-t): 21 µM·h
[2]; NMRI, mouse, plasma, po, 30 mg/kg, NMRI mice, p.o., 30 mg/kg, Xenograft study, read-out: AUC0-inf
  AUC(0-inf): 21 µM·h
[2]; NMRI, mouse, plasma, po, 100 mg/kg, NMRI mice
  MRT: 5.1 h
[2]; NMRI, mouse, plasma, po, 100 mg/kg, NMRI mice, p.o., 100 mg/kg
  AUC(0-t): 38 µM·h
[2]; NMRI, mouse, plasma, po, 100 mg/kg, NMRI mice, p.o., 100 mg/kg, read-out: AUC0-inf
  AUC(0-inf): 39 µM·h
[2]; mouse, 5 mg/kg i.v., 0.25 h, individual animals, 5 mg/kg
  Plasma concentration: 9710 nM and 10400 nM
[2]; mouse, 5 mg/kg i.v., 1 h, individual animals, 5 mg/kg
  Plasma concentration: 5970 nM and 6930 nM
[2]; mouse, 5 mg/kg i.v., 6 h, individual animals, 5 mg/kg
  Plasma concentration: 1490 nM and 870 nM
[2]; mouse, 5 mg/kg i.v., 24 h, individual animals, 5 mg/kg
  Plasma concentration: 42.1 nM and 41.5 nM
[2]; [8]
  AUC: 40.7 µM·h and 36.8 µM·h
  AUCinf: 40.9 µM·h and 37 µM·h
  CL: 1.94 mL/min/kg and 2.14 mL/min/kg
  Vss: 0.386 L/kg and 0.334 L/kg
[2]; mouse, 30 mg/kg p.o., 0.333 h, individual animals, 30 mg/kg
  Plasma concentration: 172 nM and 94.6 nM and 199 nM
[2]; mouse, 30 mg/kg p.o., 1 h, individual animals, 30 mg/kg
  Plasma concentration: 438 nM and 509 nM
[2]; mouse, 30 mg/kg p.o., 2 h, individual animals, 30 mg/kg
  Plasma concentration: 577 nM and 1020 nM
[2]; mouse, 30 mg/kg p.o., 6 h, individual animals, 30 mg/kg
  Plasma concentration: 565 nM and 239 nM and 1040 nM
[2]; mouse, 30 mg/kg p.o., 24 h, individual animals, 30 mg/kg
  Plasma concentration: 6.48 nM and 10.4 nM
[2]; [9]
  AUC: 8.84 µM·h and 4.54 µM·h and 14.6 µM·h
  AUCinf: 8.88 µM·h and 4.57 µM·h and 14.6 µM·h
  F: 4.09% and 2.11% and 6.74%
[2]; mouse, plasma, intravenous, 5 mg/kg, 5 mg/kg i.v., time 0.25 h, individual animals, read-out: Concentration
  concentration at 0.25 h: 9710 nM
[2]; mouse, plasma, intravenous, 5 mg/kg, 5 mg/kg i.v., time 1 h, individual animals, read-out: Concentration
  concentration at 1 h: 5970 nM
[2]; mouse, plasma, intravenous, 5 mg/kg, 5 mg/kg i.v., time 6 h, individual animals, read-out: Concentration
  concentration at 6 h: 1490 nM
[2]; mouse, plasma, intravenous, 5 mg/kg, 5 mg/kg i.v., time 24 h, individual animals, read-out: Concentration
  concentration at 24 h: 42.1 nM
[2]; mouse, plasma, iv, 5 mg/kg, 5 mg/kg i.v., individual animals, read-out: AUC
  AUC: 30.4 µM·h
[2]; mouse, plasma, iv, 5 mg/kg, 5 mg/kg i.v., individual animals, read-out: AUCinf
  AUC(0-inf): 30.6 µM·h
[2]; mouse, plasma, iv, 5 mg/kg, mouse, 5 mg/kg i.v., 0.25 h, individual animals, read-out: Plasma concentration
  concentration at 0.25 h: 8050 nM
[2]; mouse, plasma, iv, 5 mg/kg, mouse, 5 mg/kg i.v., 1 h, individual animals, read-out: Plasma concentration
  concentration at 1 h: 5350 nM
[2]; mouse, plasma, iv, 5 mg/kg, mouse, 5 mg/kg i.v., 6 h, individual animals, read-out: Plasma concentration
  concentration at 6 h: 807 nM
[2]; mouse, plasma, iv, 5 mg/kg, mouse, 5 mg/kg i.v., 24 h, individual animals, read-out: Plasma concentration
  concentration at 24 h: 37.6 nM
[2]; mouse, plasma, iv, 5 mg/kg, mouse, 5 mg/kg i.v., NCA, individual animals, read-out: AUC
  AUC: 30.4 µM·h
[2]; mouse, plasma, iv, 5 mg/kg, mouse, 5 mg/kg i.v., NCA, individual animals, read-out: AUCinf
  AUC(0-inf): 30.6 µM·h
[2]; mouse, plasma, iv, 5 mg/kg, mouse, 5 mg/kg i.v., NCA, individual animals, read-out: CL
  clearance: 2.59 mL/min/kg
[2]; mouse, plasma, iv, 5 mg/kg, mouse, 5 mg/kg i.v., NCA, individual animals
  Vd: 0.435 L/kg
[2]; mouse, plasma, iv, 5 mg/kg, mouse, 5 mg/kg i.v.
  Vd: 0.385 L/kg
[2]; mouse, plasma, iv, 5 mg/kg, mouse, 5 mg/kg i.v., read-out: clearance
  clearance: 2.2 mL/min/kg
[2]; mouse, plasma, oral, 30 mg/kg, 30 mg/kg p.o., time 1 h, individual animals, read-out: Concentration
  concentration at 1 h: 337 nM
[2]; mouse, plasma, oral, 30 mg/kg, 30 mg/kg p.o., time 2 h, individual animals, read-out: Concentration
  concentration at 2 h: 874 nM
[2]; mouse, plasma, oral, 30 mg/kg, 30 mg/kg p.o., time 24 h, individual animals, read-out: Concentration
  concentration at 24 h: 8.75 nM
[2]; mouse, plasma, oral, 30 mg/kg, mouse, 30 mg/kg p.o. vs 5 mg/kg i.v., read-out: F% p.o. (oral bioavailability)
  bioavailability: 3%
[2]; mouse, plasma, po, 30 mg/kg, mouse, 30 mg/kg p.o., 1 h, individual animals, read-out: Plasma concentration
  concentration at 1 h: 337 nM
[2]; mouse, plasma, po, 30 mg/kg, mouse, 30 mg/kg p.o., 2 h, individual animals, read-out: Plasma concentration
  concentration at 2 h: 874 nM
[2]; mouse, plasma, po, 30 mg/kg, mouse, 30 mg/kg p.o., 24 h, individual animals, read-out: Plasma concentration
  concentration at 24 h: 8.75 nM
